Source: patent US20100004221A1, “THIAZEPINE DERIVATIVE” (DAIICHI SANKYO COMPANY, LIMITED, priority 2006, published 2010)

Molecular target: T1, human 11β-HSD1 (Homo sapiens, UniProt P28845)
T1 construct: cDNA coding for a full-length of human 11β-HSD1 in a mammal cell expression vector pCIneo; made in house; host or cells: HEK293 cells (transient transfection with pCIneo plasmid); microsome fraction used as enzyme source
Test: 11β-HSD1 enzyme inhibition experiment
Type: biochemical
Details: test compound at 39 nM; microsome fraction of HEK293 cells expressing human 11β-HSD1; cortisone 160 nM, room temperature, 3 h; read-out: inhibiting effects on cortisol production dependent on the 11β-HSD1 expressing cells
Procedure: A plasmid obtained by incorporating cDNA coding for a full-length of human 11β-HSD1 in a mammal cell expression vector pCIneo (Promega Corporation) was introduced into HEK293 cells using Lipofectamine Plus Reagent (Invitrogen Corporation) according to the package insert. 48 h later, cells were collected and frozen at −80° C. Cells into which the pCIneo vector was introduced were prepared as a control. Cells were thawed and suspended in 20 mM HEPES, 1 mM ethylenediamine tetraacetic acid, 2 mM magnesium chloride (final concentrations), and a buffer containing a protease inhibitor cocktail (Roche), and 4.1 Mpa pressure was applied by N2 cavitation on the ice for 30 min to disrupt cells. The disrupted cell suspension was centrifuged at 1000×g at 4° C. for 10 min, and a supernatant thereof was recovered. The obtained supernatant was further ultracentrifuged at 105,000×g at 4° C. for 30 min, and the resulting precipitate was suspended in an assay buffer (50 mM tris buffer, 10% glycerol) as a microsome fraction and used as an enzyme source.
A reaction was performed on a 384-well plate (Greiner Bio One) using a reaction volume of 25 μL, and all the samples were diluted with an assay buffer (50 mM tris buffer, pH 7.4, 10% glycerol). 0.8 mM NADPH, 6 mM glucose 6-phosphate, 0.35 units/mL glucose 6-phosphate dehydrogenase (Sigma Chemical), and 3 mM magnesium chloride and a microsome fraction having a protein amount of 0.7 μg per well (final concentrations) were added to the plate, and a solution containing a test compound dissolved in dimethyl sulfoxide was added at a final concentration of 0.1% and preincubated at room temperature for 15 min. After completion of preincubation, cortisone at a final concentration of 160 nM was added to start a reaction, and the reaction was performed at room temperature for 3 h. 25 μL of 100 mM carbenoxolone (Sigma Chemical) was added to terminate the reaction, and the amount of produced cortisol was measured with Discovery (Hewlett-Packard Company) using a cortisol prototype kit (Cisbio International) according to the package insert.

T1 sequence (P28845 whole entry): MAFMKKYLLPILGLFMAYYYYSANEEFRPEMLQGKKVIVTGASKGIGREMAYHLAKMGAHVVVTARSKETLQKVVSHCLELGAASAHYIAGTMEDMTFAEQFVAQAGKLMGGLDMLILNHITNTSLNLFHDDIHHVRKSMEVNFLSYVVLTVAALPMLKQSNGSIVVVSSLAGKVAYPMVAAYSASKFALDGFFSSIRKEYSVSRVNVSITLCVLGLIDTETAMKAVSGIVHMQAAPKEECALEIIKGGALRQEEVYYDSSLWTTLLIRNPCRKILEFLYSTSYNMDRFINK

inhibition at 0.039 µM	Compound
89%	CC1(C2CC2)Cc2nnc(-c3ccccc3Cl)n2CCS1 (stereo not drawn) [Example 52, 3-(2-Chlorophenyl)-8-cyclopropyl-8-methyl-5,6,8,9-tetrahydro[1,2,4]triazolo[4,3-d][1,4]thiazepine]
71.8%	CC1(CO)Cc2nnc(-c3ccc(-c4ccc(F)cc4)cc3Cl)n2CCS1 (stereo not drawn) [Example 1, [3-(3-Chloro-4′-fluorobiphenyl-4-yl)-8-methyl-5,6,8,9-tetrahydro[1,2,4]triazolo[4,3-d][1,4]thiazepin-8-yl]methanol]
35.8%	COc1cc(-c2ccc(F)c(Cl)c2)ccc1-c1nnc2n1CCSC(C)(CO)C2 (stereo not drawn) [Example 32, [3-(3′-Chloro-4′-fluoro-3-methoxybiphenyl-4-yl)-8-methyl-5,6,8,9-tetrahydro[1,2,4]triazolo[4,3-d][1,4]thiazepin-8-yl]methanol]
67.1%	Cc1c(-c2nnc3n2CCSC(C)(CO)C3)sc2ccc(Cl)cc12 (stereo not drawn) [Example 8, [3-(5-Chloro-3-methyl-1-benzothiophen-2-yl)-8-methyl-5,6,8,9-tetrahydro[1,2,4]triazolo[4,3-d][1,4]thiazepin-8-yl]methanol]

Test system: not given
Test: not given
Details: not given

Compound	melting point
CC1(CO)Cc2nnc(-c3ccc(-c4ccc(F)cc4)cc3Cl)n2CCS1 (stereo not drawn) [Example 1, [3-(3-Chloro-4′-fluorobiphenyl-4-yl)-8-methyl-5,6,8,9-tetrahydro[1,2,4]triazolo[4,3-d][1,4]thiazepin-8-yl]methanol]	190 to 193 °C
COc1cc(-c2ccc(F)c(Cl)c2)ccc1-c1nnc2n1CCSC(C)(CO)C2 (stereo not drawn) [Example 32, [3-(3′-Chloro-4′-fluoro-3-methoxybiphenyl-4-yl)-8-methyl-5,6,8,9-tetrahydro[1,2,4]triazolo[4,3-d][1,4]thiazepin-8-yl]methanol]	238 to 241 °C
CCOc1ccccc1-c1nnc2n1CCSC(C)(C)C2 [Example 49, 3-(2-Ethoxyphenyl)-8,8-dimethyl-5,6,8,9-tetrahydro[1,2,4]triazolo[4,3-d][1,4]thiazepine]	136 to 137 °C
CC1(CO)Cc2nnc(-c3ccc(-c4ccc(F)cc4)cc3C(F)(F)F)n2CCS1 (stereo not drawn) [Example 22, {3-[4′-Fluoro-3-(trifluoromethyl)biphenyl-4-yl)-8-methyl-5,6,8,9-tetrahydro[1,2,4]triazolo[4,3-d][1,4]thiazepin-8-yl]methanol]	202 to 204 °C
CC1(CO)Cc2nnc(-c3ccc(N4CCOCC4)cc3Cl)n2CCS1 (stereo not drawn) [Example 37, {3-[2-Chloro-4-(morpholin-4-yl)phenyl]-8-methyl-5,6,8,9-tetrahydro[1,2,4]triazolo[4,3-d][1,4]thiazepin-8-yl}methanol]	191 to 193 °C

Further lines, results first:

melting point	Compound
138 to 140 °C	CC1(CO)Cc2nnc(-c3ccc(Oc4ccc(F)cc4)cc3Cl)n2CCS1 (stereo not drawn) [Example 42, {3-[2-Chloro-4-(4-fluorophenoxy)phenyl]-8-methyl-5,6,8,9-tetrahydro[1,2,4]triazolo[4,3-d][1,4]thiazepin-8-yl}methanol]
181 to 184 °C	COc1cccc(-c2ccc(-c3nnc4n3CCSC(C)(CO)C4)c(Cl)c2)c1 (stereo not drawn) [Example 18, [3-(3-Chloro-3′-methoxybiphenyl-4-yl)-8-methyl-5,6,8,9-tetrahydro[1,2,4]triazolo[4,3-d][1,4]thiazepin-8-yl]methanol]
260 to 265 °C	CC1(CO)Cc2nnc(-c3ccc(-c4cc(F)cc(F)c4)cc3Cl)n2CCS1 (stereo not drawn) [Example 27, [3-(3-Chloro-3′,5′-difluorobiphenyl-4-yl)-8-methyl-5,6,8,9-tetrahydro[1,2,4]triazolo[4,3-d][1,4]thiazepin-8-yl]methanol]
